Measured values reported in ChEMBL document CHEMBL6109109, “Fatty acid binding protein 5 inhibitors as novel anticancer agents against metastatic castration-resistant prostate cancer” (Bioorg Med Chem, 2025).
pIC50, pKi: −log10 of the molar value.

Experiments:
[1] = Cytotoxicity against human WI-38 cells assessed as reduction in cell viability measured after 72 hrs by MTT assay; format: toxicity, cell-based
[2] = system: PC-3; experiment: Induction of apoptosis in human PC-3 cells assessed as viable cells at 15 uM measured after 72 hrs by Annexin V-FITC/propidium iodide staining based FACS analysis (reference value: 97.62%); format: functional; details: read-out: Activity
[3] = system: PC-3; experiment: Induction of apoptosis in human PC-3 cells assessed as early apoptotic cells at 15 uM measured after 72 hrs by Annexin V-FITC/propidium iodide staining based FACS analysis (reference value: 0.54%); format: functional
[4] = system: PC-3; experiment: Cytotoxicity against human PC-3 cells assessed as reduction in cell viability measured after 72 hrs by MTT assay; format: functional, cell-based; details: PC-3, 72 h
[5] = system: PC-3; experiment: Induction of apoptosis in human PC-3 cells assessed as necrotic cells at 15 uM measured after 72 hrs by Annexin V-FITC/propidium iodide staining based FACS analysis (reference value: 0.11%); format: functional
[6] = Cytotoxicity against mouse RCap cells assessed as reduction in cell viability measured after 72 hrs by MTT assay; format: functional, cell-based
[7] = system: PC-3; experiment: Induction of apoptosis in human PC-3 cells assessed as late apoptotic cells at 15 uM measured after 72 hrs by Annexin V-FITC/propidium iodide staining based FACS analysis (reference value: 1.73%); format: functional
[8] = Cytotoxicity against mouse RCaP cells assessed as cell growth inhibition at 0.01 uM measured after 72 hrs by MTT assay relative to control; format: functional; details: read-out: GI
[9] = system: PC-3; experiment: Cytotoxicity against human PC-3 cells assessed as cell growth inhibition at 0.1 uM measured after 72 hrs by MTT assay relative to control; format: functional; details: read-out: GI
[10] = Cytotoxicity against mouse RCaP cells assessed as cell growth inhibition at 0.00001 uM measured after 72 hrs by MTT assay relative to control; format: functional; details: dose 1e-05 µM, read-out: GI
[11] = system: PC-3; experiment: Cytotoxicity against human PC-3 cells assessed as cell growth inhibition at 0.0001 uM measured after 72 hrs by MTT assay relative to control; format: functional; details: read-out: GI
[12] = Cytotoxicity against mouse RCaP cells assessed as cell growth inhibition at 10 uM measured after 72 hrs by MTT assay relative to control; format: functional; details: read-out: GI
[13] = system: PC-3; experiment: Cytotoxicity against human PC-3 cells assessed as cell growth inhibition at 10 uM measured after 72 hrs by MTT assay relative to control; format: functional; details: read-out: GI
[14] = system: PC-3; experiment: Cytotoxicity against human PC-3 cells assessed as cell growth inhibition at 1 uM measured after 72 hrs by MTT assay relative to control; format: functional; details: read-out: GI
[15] = Cytotoxicity against mouse RCaP cells assessed as cell growth inhibition at 0.0001 uM measured after 72 hrs by MTT assay relative to control; format: functional; details: read-out: GI
[16] = Cytotoxicity against mouse RCaP cells assessed as cell growth inhibition at 0.001 uM measured after 72 hrs by MTT assay relative to control; format: functional; details: read-out: GI
[17] = Cytotoxicity against mouse RCaP cells assessed as cell growth inhibition at 1 uM measured after 72 hrs by MTT assay relative to control; format: functional; details: read-out: GI
[18] = system: PC-3; experiment: Cytotoxicity against human PC-3 cells assessed as cell growth inhibition at 0.01 uM measured after 72 hrs by MTT assay relative to control; format: functional; details: read-out: GI
[19] = system: PC-3; experiment: Cytotoxicity against human PC-3 cells assessed as cell growth inhibition at 0.00001 uM measured after 72 hrs by MTT assay relative to control; format: functional; details: dose 1e-05 µM, read-out: GI
[20] = Cytotoxicity against mouse RCaP cells assessed as cell growth inhibition at 0.1 uM measured after 72 hrs by MTT assay relative to control; format: functional; details: read-out: GI
[21] = system: PC-3; experiment: Cytotoxicity against human PC-3 cells assessed as cell growth inhibition at 0.001 uM measured after 72 hrs by MTT assay relative to control; format: functional; details: read-out: GI
[22] = Binding affinity to FABP5 (unknown origin); set-up: species or system Homo sapiens

In the case of `O=C(O)[C@H]1[C@@H](c2ccccc2)[C@H](C(=O)Oc2cccc3ccccc23)[C@@H]1c1ccccc1`, the IC50 at 72 h [1] was 83.3 µM, the viability at 15 µM [2] was 95.4% and the Activity [3] was 1.22%. For the same compound, the pIC50 [4] was 4.80, the Activity [5] was 0.21% and the pIC50 [6] was 4.48. For the same compound, the Activity [7] was 3.13%.
`CC[C@@]1(O)C(=O)OCc2c1cc1n(c2=O)Cc2cc3c(CN(C)C)c(O)ccc3nc2-1` [TOPOTECAN] gave an inhibition of growth at 0.01 µM [8] of 9.17%, an inhibition of growth at 0.1 µM [9] of 55.9% and an inhibition of growth at 10 pM [10] of -1.57%. It also gave an inhibition of growth at 0.0001 µM [11] of -2.77%, an inhibition of growth at 10 µM [12] of 89.6% and an inhibition of growth at 10 µM [13] of 69.2%. For the same compound, the inhibition of growth at 1 µM [14] was 67.1%, the inhibition of growth at 0.0001 µM [15] was -3.2% and the inhibition of growth at 0.001 µM [16] was 0.1%. It also gave an inhibition of growth at 1 µM [17] of 93.6%, an inhibition of growth at 0.01 µM [18] of 20.1% and an inhibition of growth at 10 pM [19] of -4.4%. The inhibition of growth at 0.1 µM [20] was 66% and the inhibition of growth at 0.001 µM [21] was 1.13%.
For `O=C(O)[C@H]1[C@H](c2ccccc2)[C@@H](C(=O)Oc2cc(-c3ccc4c(c3)OCO4)ccc2Br)[C@H]1c1ccccc1`, the IC50 at 72 h [1] was 25.9 µM, the pIC50 [4] was 5.11 and the pIC50 [6] was 5.00. The pKi [22] was 6.05.
